In the NIST ThermoML archive (doi:10.1016/j.fluid.2013.09.030):

Experiments:
[1] = refractive index (Na D-line) (dimensionless); settings: 298.15 K; 101.33 kPa; Liquid; Standard Abbe refractometry
[2] = Liquid; for mass density: 298.15 K, 101.33 kPa, Vibrating tube method; for vapor or sublimation pressure: Ebulliometric method (Recirculating still)
[3] = refractive index (Na D-line) (dimensionless); xn = mol fraction of the nth substance listed; settings: 298.15 K, 101 kPa, Liquid, Standard Abbe refractometry
[4] = xn = mol fraction of the nth substance listed; settings: 298.15 K, 101 kPa, Liquid, Vibrating tube method
[5] = Boiling temperature at pressure P; settings: Liquid, Ebulliometric method (Recirculating still)

COC(=O)OC [dimethyl carbonate]
Settings | mass density [kg/m3] | refractive index
[1] | – | 1.3666
[2] | 1063.26 | –

Settings | vapor or sublimation pressure [kPa]
[2], 363.25 K | 101.3

COC(=O)Oc1ccccc1 [methyl phenyl carbonate] + COC(=O)OC
Settings | mass density, [4] [kg/m3] | refractive index, [3]
x1 = 0.0499 | 1069.88 | 1.3764
x1 = 0.1 | 1076.1 | 1.3863
x1 = 0.2001 | 1087.37 | 1.4038
x1 = 0.2999 | 1097.32 | 1.419
x1 = 0.4 | 1106.17 | 1.4336
x1 = 0.5002 | 1114.08 | 1.4463
x1 = 0.6 | 1121.17 | 1.4575
x1 = 0.7007 | 1127.6 | 1.468
x1 = 0.8003 | 1133.42 | 1.4774
x1 = 0.8991 | 1138.71 | 1.4853
x1 = 0.9493 | 1141.22 | 1.4901

COC(=O)Oc1ccccc1 [methyl phenyl carbonate] + CO
Settings | mass density, [4] [kg/m3] | refractive index, [3]
x1 = 0.0501 | 842.07 | 1.3647
x1 = 0.1001 | 886.48 | 1.3885
x1 = 0.2002 | 953.27 | 1.4283
x1 = 0.3002 | 1000.92 | 1.45
x1 = 0.4003 | 1036.71 | 1.467
x1 = 0.5 | 1064.49 | 1.4748
x1 = 0.6013 | 1087.16 | 1.4801
x1 = 0.7008 | 1105.28 | 1.4848
x1 = 0.8003 | 1120.25 | 1.4877
x1 = 0.9015 | 1133.12 | 1.4915
x1 = 0.9471 | 1138.14 | 1.4929

COC(=O)Oc1ccccc1 [methyl phenyl carbonate]
[5]
Settings | Boiling temperature at pressure P [°C]
3 kPa | 105.66
5 kPa | 118.02
10 kPa | 136.72
15 kPa | 148.41
20 kPa | 157.08
25 kPa | 164.10
30 kPa | 170.01
35 kPa | 174.97
40 kPa | 179.58
45 kPa | 183.76
50 kPa | 187.52
55 kPa | 190.94
60 kPa | 194.06
65 kPa | 197.11
70 kPa | 199.87
75 kPa | 202.31
80 kPa | 204.76
85 kPa | 207.20
90 kPa | 209.54
95 kPa | 211.70
100 kPa | 213.56
101.3 kPa | 214.33
102.1 kPa | 214.51

Settings | mass density [kg/m3] | refractive index
[1] | – | 1.4948
[2] | 1143.63 | –

CO [methanol]
Settings | mass density [kg/m3] | refractive index
[1] | – | 1.3267
[2] | 786.69 | –

Settings | vapor or sublimation pressure [kPa]
[2], 338.12 K | 101.3
